Reference: the NIST ThermoML archive (doi:10.1016/j.jct.2011.07.014)

Settings: Liquid, Transpiration method

CC(=O)CCC(=O)O [4-oxopentanoic acid]
Settings | vapor or sublimation pressure [kPa]
328.4 K | 0.00705
333.4 K | 0.01045
338.3 K | 0.01414
343.3 K | 0.02096
343.4 K | 0.02019
348.3 K | 0.02702
353.3 K | 0.0381
358.3 K | 0.05278
358.4 K | 0.05148
363.4 K | 0.07587
368.4 K | 0.101
373.4 K | 0.1349
